Laboratory results as given in ChEMBL document CHEMBL4342484, “Structure-Activity Relationship for the Oxadiazole Class of Antibacterials” (ACS Med Chem Lett, 2020).
In brackets after ≈: the same amount, converted by molar mass.

Columns and labels:
Staphylococcus aureus [1] = experiment: Antibacterial activity against Staphylococcus aureus ATCC 29213 by broth microdilution method; format: functional
[2] = Hemolytic activity in human RBC relative to control; format: ADME, cell-based, Erythrocyte; settings: red blood cells (erythrocytes), read-out: Activity
[3] = Plasma protein binding in human at […] incubated for 2 hrs by UPLC analysis; format: ADME, cell-free; settings: read-out: PPB (converted)
HepG2 = experiment: Cytotoxicity against human HepG2 cells assessed as reduction in cell viability by XTT assay; format: cell-based
Bacillus licheniformis = experiment: Antibacterial activity against Bacillus licheniformis ATCC 12759 by broth microdilution method; format: functional
Staphylococcus aureus [4] = experiment: Antibacterial activity against Staphylococcus aureus ATCC 27660 by broth microdilution method; format: functional
Staphylococcus aureus [5] = experiment: Antibacterial activity against Staphylococcus aureus NRS120 by broth microdilution method; format: functional
Enterococcus faecium [6] = experiment: Antibacterial activity against vancomycin-susceptible Enterococcus faecium 119-39A clinical isolate by broth microdilution method; format: functional
Staphylococcus aureus [7] = experiment: Antibacterial activity against Staphylococcus aureus N315 (NRS70) by broth microdilution method; format: functional
Bacillus cereus = experiment: Antibacterial activity against Bacillus cereus ATCC 13061 by broth microdilution method; format: functional
[8] = tested on: Staphylococcus epidermidis; experiment: Antibacterial activity against Staphylococcus epidermidis ATCC 35547 by broth microdilution method; format: functional
Staphylococcus aureus [9] = experiment: Antibacterial activity against Staphylococcus aureus NRS100 (COL) by broth microdilution method; format: functional
[10] = tested on: Staphylococcus haemolyticus; experiment: Antibacterial activity against Staphylococcus haemolyticus ATCC 29970 by broth microdilution method; format: functional
Staphylococcus aureus [11] = experiment: Antibacterial activity against vancomycin-resistant Staphylococcus aureus VRS2 clinical isolate by broth microdilution method; format: functional
Staphylococcus aureus [12] = experiment: Antibacterial activity against vancomycin-resistant Staphylococcus aureus VRS1 clinical isolate by broth microdilution method; format: functional
Staphylococcus aureus [13] = experiment: Antibacterial activity against Staphylococcus aureus NRS119 by broth microdilution method; format: functional
Enterococcus faecium [14] = experiment: Antibacterial activity against Enterococcus faecium NCTC 7171 by broth microdilution method; format: functional
Enterococcus faecium [15] = experiment: Antibacterial activity against vancomycin-resistant Enterococcus faecium 106 clinical isolate by broth microdilution method; format: functional
Enterococcus faecalis [16] = experiment: Antibacterial activity against vancomycin-resistant Enterococcus faecalis 99 clinical isolate by broth microdilution method; format: functional
[17] = Drug level in mouse thigh infected with linezolid-resistant Staphylococcus aureus NRS119 at 40 mg/kg, po administered 1 hrs post infection and measured for 48 hrs; format: ADME, organism-based; settings: read-out: Drug uptake
Enterococcus faecalis [18] = experiment: Antibacterial activity against Enterococcus faecalis ATCC 29212 by broth microdilution method; format: functional
[19] = Drug level in mouse thigh infected with linezolid-sensitive Staphylococcus aureus NRS70 at 40 mg/kg, po administered 1 hrs post infection and measured for 48 hrs; format: ADME, organism-based; settings: read-out: Drug uptake
Enterococcus faecalis [20] = experiment: Antibacterial activity against vancomycin-susceptible Enterococcus faecalis 201 clinical isolate by broth microdilution method; format: functional

Oc1ccc(-c2nc(-c3ccc(Oc4ccccn4)cc3)no2)cc1
MIC (Staphylococcus aureus [1]): ≥ 128 µg/mL

Clc1c[nH]nc1-c1nc(-c2ccc(OC3CCNCC3)cc2)no1
MIC (Staphylococcus aureus [1]): ≥ 128 µg/mL

O=C(O)c1ccccc1Oc1ccc(-c2noc(-c3ccc(O)cc3)n2)cc1
MIC (Staphylococcus aureus [1]): > 128 µg/mL

Oc1ccc(-c2nc(-c3ccc(OC4CCNCC4)cc3)no2)cc1
MIC (Staphylococcus aureus [1]): 16 µg/mL (≈ 47.4 µM)

Oc1ccc(-c2nc(-c3ccc4oc5ccc(C(F)(F)F)cc5c4c3)no2)cc1
MIC (Staphylococcus aureus [1]): ≥ 128 µg/mL

Clc1c[nH]nc1-c1nc(-c2ccc(OC3CN4CCC3CC4)cc2)no1 (stereo not given)
MIC (Staphylococcus aureus [1]): 128 µg/mL (≈ 344 µM)

Oc1ccc(-c2nc(-c3ccc(Oc4ccc(I)cc4)cc3)no2)cc1
MIC (Staphylococcus aureus [1]): 4 µg/mL (≈ 8.77 µM)

Oc1ccc(-c2nc(-c3ccc4c(c3)Oc3ccccc3O4)no2)cc1
MIC (Staphylococcus aureus [1]): ≥ 128 µg/mL

Clc1c[nH]nc1-c1nc(-c2ccc(Oc3ccc(I)cc3)cc2)no1
hemolysis [2]: 3.1% | fraction unbound at 2 h [3]: 0.095 | MIC (Staphylococcus aureus [1]): 1 µg/mL (≈ 2.15 µM) | IC50 (HepG2): 30.7 µg/mL (≈ 66.1 µM)

Cc1nc2cc(Oc3ccc(-c4noc(-c5n[nH]cc5Cl)n4)cc3)ccc2s1
MIC (Staphylococcus aureus [1]): 16 µg/mL (≈ 39 µM)

O=C(O)c1cccc(Oc2ccc(-c3noc(-c4ccc(O)cc4)n3)cc2)c1
MIC (Staphylococcus aureus [1]): 64 µg/mL (≈ 171 µM)

Oc1ccc(-c2nc(-c3ccc(Oc4ccccc4I)cc3)no2)cc1
MIC (Staphylococcus aureus [1]): 2 µg/mL (≈ 4.38 µM)

CN(C)C(=O)CCOc1ccc(-c2noc(-c3ccc(O)cc3)n2)cc1
MIC (Staphylococcus aureus [1]): ≥ 128 µg/mL

FC(F)(F)Oc1ccc(-c2noc(-c3n[nH]cc3Cl)n2)cc1
MIC (Staphylococcus aureus [1]): ≥ 128 µg/mL

CC(C)(C)OC(=O)NCCCOc1ccc(-c2noc(-c3ccc(O)cc3)n2)cc1
MIC (Staphylococcus aureus [1]): ≥ 128 µg/mL

CC(C)S(=O)(=O)Oc1ccc(-c2noc(-c3ccc(O)cc3)n2)cc1
MIC (Staphylococcus aureus [1]): ≥ 128 µg/mL

CN1[C@@H]2CC[C@@H]1CC(Oc1ccc(-c3noc(-c4ccc(O)cc4)n3)cc1)C2 (stereo not given in full)
MIC (Staphylococcus aureus [1]): 32 µg/mL (≈ 84.8 µM)

CC(C)(C)OC(=O)N1CCC(Oc2ccc(-c3noc(-c4n[nH]cc4Cl)n3)cc2)CC1
MIC (Staphylococcus aureus [1]): ≥ 128 µg/mL

CC(=O)NC[C@H]1CN(c2ccc(N3CCOCC3)c(F)c2)C(=O)O1 [LINEZOLID]
MIC (Bacillus licheniformis): 0.5 µg/mL (≈ 1.48 µM) | MIC (Staphylococcus aureus [4]): 1 µg/mL (≈ 2.96 µM) | MIC (Staphylococcus aureus [5]): 32 µg/mL (≈ 94.9 µM) | MIC (Enterococcus faecium [6]): 1 µg/mL (≈ 2.96 µM) | MIC (Staphylococcus aureus [7]): 1 µg/mL (≈ 2.96 µM) | MIC (Bacillus cereus): 0.5 µg/mL (≈ 1.48 µM) | MIC [8]: 0.5 µg/mL (≈ 1.48 µM) | MIC (Staphylococcus aureus [9]): 1 µg/mL (≈ 2.96 µM) | MIC [10]: 1 µg/mL (≈ 2.96 µM) | MIC (Staphylococcus aureus [11]): 1 µg/mL (≈ 2.96 µM) | MIC (Staphylococcus aureus [12]): 1 µg/mL (≈ 2.96 µM) | MIC (Staphylococcus aureus [13]): 32 µg/mL (≈ 94.9 µM) | MIC (Enterococcus faecium [14]): 1 µg/mL (≈ 2.96 µM) | MIC (Enterococcus faecium [15]): 1 µg/mL (≈ 2.96 µM)

Fc1ccc(Oc2ccc(-c3noc(-c4n[nH]cc4Cl)n3)cc2)cc1Cl
hemolysis [2]: 2.9% | fraction unbound at 2 h [3]: 0.088 | MIC (Staphylococcus aureus [1]): 2 µg/mL (≈ 5.11 µM) | IC50 (HepG2): 21 µg/mL (≈ 53.7 µM)

O=[N+]([O-])c1ccccc1Oc1ccc(-c2noc(-c3ccc(O)cc3)n2)cc1
MIC (Staphylococcus aureus [1]): 4 µg/mL (≈ 10.7 µM)

Oc1ccc(-c2nc(-c3ccc(OC4CN5CCC4CC5)cc3)no2)cc1 (stereo not given)
MIC (Staphylococcus aureus [1]): 64 µg/mL (≈ 176 µM)

OCc1ccccc1Oc1ccc(-c2noc(-c3ccc(O)cc3)n2)cc1
MIC (Staphylococcus aureus [1]): ≥ 128 µg/mL

Cl.Clc1c[nH]nc1-c1nc(-c2ccc(OC3CCCNC3)cc2)no1 (stereo not given)
MIC (Staphylococcus aureus [1]): ≥ 128 µg/mL

Oc1ccc(Oc2ccc(-c3noc(-c4ccc(O)cc4)n3)cc2)cc1
MIC (Staphylococcus aureus [1]): 16 µg/mL (≈ 46.2 µM)

Oc1ccc(-c2nc(-c3ccc(OC(F)(F)F)cc3)no2)cc1
hemolysis [2]: 16% | MIC (Staphylococcus aureus [1]): 1 µg/mL (≈ 3.1 µM) | IC50 (HepG2): 84.9 µg/mL (≈ 263 µM)

[N-]=[N+]=Nc1ccccc1Oc1ccc(-c2noc(-c3ccc(O)cc3)n2)cc1
MIC (Staphylococcus aureus [1]): 2 µg/mL (≈ 5.39 µM)

FC(F)(F)c1ccc(Oc2ccc(-c3noc(-c4ccc5[nH]ccc5c4)n3)cc2)cc1
MIC (Bacillus licheniformis): 8 µg/mL (≈ 19 µM) | MIC (Staphylococcus aureus [4]): 4 µg/mL (≈ 9.49 µM) | MIC (Staphylococcus aureus [5]): 2 µg/mL (≈ 4.75 µM) | MIC (Enterococcus faecium [6]): 1 µg/mL (≈ 2.37 µM) | MIC (Staphylococcus aureus [7]): 2 µg/mL (≈ 4.75 µM) | MIC (Bacillus cereus): 16 µg/mL (≈ 38 µM) | MIC [8]: 2 µg/mL (≈ 4.75 µM) | MIC (Staphylococcus aureus [9]): 2 µg/mL (≈ 4.75 µM) | MIC (Enterococcus faecalis [16]): 4 µg/mL (≈ 9.49 µM) | concentration at 48 h [17]: 6000 ng/g | MIC [10]: 4 to 8 µg/mL (≈ 9.49 to 19 µM) | MIC (Enterococcus faecalis [18]): 8 µg/mL (≈ 19 µM) | concentration at 48 h [19]: 7600 ng/g | MIC (Staphylococcus aureus [11]): 2 µg/mL (≈ 4.75 µM) | MIC (Staphylococcus aureus [1]): 2 to 4 µg/mL (≈ 4.75 to 9.49 µM) | MIC (Enterococcus faecalis [20]): 4 µg/mL (≈ 9.49 µM) | MIC (Staphylococcus aureus [12]): 2 µg/mL (≈ 4.75 µM) | MIC (Staphylococcus aureus [13]): 2 µg/mL (≈ 4.75 µM) | MIC (Enterococcus faecium [14]): 2 µg/mL (≈ 4.75 µM) | MIC (Enterococcus faecium [15]): 2 µg/mL (≈ 4.75 µM)

CS(=O)(=O)c1ccc(Oc2ccc(-c3noc(-c4n[nH]cc4Cl)n3)cc2)cc1
MIC (Staphylococcus aureus [1]): 128 µg/mL (≈ 307 µM)

O=C(O)c1ccc(Oc2ccc(-c3noc(-c4ccc(O)cc4)n3)cc2)cc1
MIC (Staphylococcus aureus [1]): 64 µg/mL (≈ 171 µM)

Oc1ccc(-c2nc(-c3ccc4oc5ccc(F)cc5c4c3)no2)cc1
MIC (Staphylococcus aureus [1]): ≥ 128 µg/mL

N#Cc1ccc(Oc2ccc(-c3noc(-c4n[nH]cc4Cl)n3)cc2)cc1
MIC (Staphylococcus aureus [1]): 128 µg/mL (≈ 352 µM)

CC(C)(C)OC(=O)NC1CCC(Oc2ccc(-c3noc(-c4ccc(O)cc4)n3)cc2)CC1 (stereo not given)
MIC (Staphylococcus aureus [1]): ≥ 128 µg/mL

Clc1ccc(Oc2ccc(-c3noc(-c4n[nH]cc4Cl)n3)cc2)cc1Cl
hemolysis [2]: 1.8% | fraction unbound at 2 h [3]: 0.022 | MIC (Staphylococcus aureus [1]): 1 µg/mL (≈ 2.45 µM) | IC50 (HepG2): 17.2 µg/mL (≈ 42.2 µM)

Oc1ccc(-c2nc(-c3ccc(Oc4cccc(CBr)c4)cc3)no2)cc1
MIC (Staphylococcus aureus [1]): 4 µg/mL (≈ 9.45 µM)

Oc1ccc(-c2noc(-c3ccc(O)cc3)n2)cc1
MIC (Staphylococcus aureus [1]): ≥ 128 µg/mL

Oc1ccc(-c2nc(-c3ccc(OC4CNC4)cc3)no2)cc1
MIC (Staphylococcus aureus [1]): 64 µg/mL (≈ 207 µM)
